Residues, ends and D or L forms follow the SMILES beside them. *: point of attachment. Fmoc = O=C(OCC1c2ccccc2-c2ccccc21)*
Each molecule was assayed against alanyl aminopeptidases (APN) (Homo sapiens, UniProt P15144) (assay: Inhibition of alanyl aminopeptidase enzymatic activity, fluorogenic substrate (Ala)2-rhodamine 110). Conditions: Table 3, starred values = ID50; read-out: ID50 APN (values marked with *).
Assay type: biochemical
Experimental: The inhibition characteristics measured are referred to as IC-50 values or ID50 values (the latter marked with “*”) for said enzyme. The enzymatic activity was determined by means of the fluorogenic substrate/product (Ala)2-rhodamine 110.

Chain of alanyl aminopeptidases (APN) (P15144 whole entry, species assumed): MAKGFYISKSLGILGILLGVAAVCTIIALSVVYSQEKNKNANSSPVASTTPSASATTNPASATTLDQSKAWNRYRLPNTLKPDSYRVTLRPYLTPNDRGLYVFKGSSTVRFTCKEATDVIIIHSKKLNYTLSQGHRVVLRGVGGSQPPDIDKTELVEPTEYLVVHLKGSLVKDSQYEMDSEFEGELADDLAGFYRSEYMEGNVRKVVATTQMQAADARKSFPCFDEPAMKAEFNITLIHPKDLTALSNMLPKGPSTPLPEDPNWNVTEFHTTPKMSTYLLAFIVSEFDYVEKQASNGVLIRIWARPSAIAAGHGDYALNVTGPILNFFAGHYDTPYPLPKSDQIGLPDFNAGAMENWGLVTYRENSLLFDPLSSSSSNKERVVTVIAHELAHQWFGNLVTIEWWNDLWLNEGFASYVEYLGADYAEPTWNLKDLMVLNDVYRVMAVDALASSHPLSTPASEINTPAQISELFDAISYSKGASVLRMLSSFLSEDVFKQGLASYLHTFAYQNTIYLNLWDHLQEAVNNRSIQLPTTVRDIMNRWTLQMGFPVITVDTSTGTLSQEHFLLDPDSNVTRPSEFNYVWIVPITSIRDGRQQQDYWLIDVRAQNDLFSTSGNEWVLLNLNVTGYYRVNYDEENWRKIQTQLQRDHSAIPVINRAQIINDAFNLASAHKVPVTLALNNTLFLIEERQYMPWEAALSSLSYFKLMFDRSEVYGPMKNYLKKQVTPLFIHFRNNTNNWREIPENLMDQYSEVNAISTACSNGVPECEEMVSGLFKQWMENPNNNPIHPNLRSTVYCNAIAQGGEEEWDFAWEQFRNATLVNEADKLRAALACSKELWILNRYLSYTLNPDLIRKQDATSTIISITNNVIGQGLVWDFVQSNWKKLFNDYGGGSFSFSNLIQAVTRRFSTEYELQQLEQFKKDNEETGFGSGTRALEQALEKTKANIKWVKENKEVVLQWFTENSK

| SMILES | IC50 [µM] |
| --- | --- |
| O=C1C(Cc2ccc(O)cc2)NC(=S)N1Cc1ccccc1 (centres unmarked) [A3.145] | 23.7 |

Same assay, conditions: Table 3, unstarred values; read-out: IC50APN

| IC50 [µM] | SMILES |
| --- | --- |
| 18.2 | CC(=O)c1cccc(-c2ccc(/C=C3/C(=O)N(CCCO)C(=O)C(C#N)=C3C)o2)c1 [A3.089] |
| 18.4 | Cc1ccc(/C=N/NC(=O)c2ccccc2OCc2ccccc2)o1 [A3.090] |
| 18.7 | O=C(Nc1ccccc1C(=O)N/N=C/c1ccco1)c1ccc(Cl)cc1Cl [A3.092] |
| 18.9 | Cc1ccc(/C=N/NC(=O)c2cccc(NC(=O)c3ccccc3C)c2)o1 [A3.093] |
| 9.5 | Cc1cc(I)ccc1CC(=O)CCC(=O)N/N=C/c1ccco1 [A3.095] |
| 19.2 | Cc1ccccc1S(=O)(=O)Nc1cccc(C(=O)N/N=C/c2ccco2)c1 [A3.097] |
| 19.5 | CCCOc1ccccc1-c1cc(C(=O)N/N=C/c2ccco2)[nH]n1 [A3.100] |
| 19.8 | O=C(N/N=C/c1cc(Br)cc(Br)c1OC(=O)c1ccccc1)/C(=C/c1ccc2c(c1)OCO2)NC(=O)c1ccccc1 [A3.101] |
| 19.9 | COc1ccc(/C(C)=N/NC(=O)CNC(=O)/C=C\c2ccco2)cc1OC [A3.102] |
| 20.2 | Cc1cccc(C(=O)Nc2ccc(C(=O)N/N=C/c3ccc(C)o3)cc2)c1 [A3.106] |
| 20.5 | COc1cc(Br)ccc1OCC(=O)N/N=C/c1cc(Br)c(O)c(O)c1Br [A3.109] |
| 20.6 | O=C(N/N=C/c1ccco1)c1cccc(NC(=O)c2ccccc2Cl)c1 [A3.110] |
| 20.8 | COc1ccc(-c2nc(C)sc2CC(=O)O)cc1 [A3.111] |
| 20.9 | O=C(N/N=C/c1ccco1)c1cc(-c2ccco2)n[nH]1 [A3.113] |
| 21.2 | COC(=O)c1cc(NC(=O)Cc2cccs2)cc(C(=O)OC)c1 [A3.117] |
| 21.8 | COc1ccc(C(=O)N/N=C/c2cc(Br)c(C)o2)cc1 [A3.125] |
| 22.2 | Cc1ccc(/C=N/NC(=O)COc2ccccc2C)o1 [A3.128] |
| 22.4 | O=C(N/N=C/c1ccco1)c1ccc(=O)[nH]n1 [A3.130] |
| 22.4 | O=C(N/N=C/c1ccco1)c1cccc(NC(=O)c2cccc(Br)c2)c1 [A3.131] |
| 22.6 | COc1ccc(C(=O)N/N=C/c2ccco2)cc1 [A3.134] |
| 22.8 | CCN(CC)c1ccc(/C=N/NC(=O)CNC(=O)/C=C/c2ccco2)cc1 [A3.135] |
| 22.8 | Cc1ccc(/C=N/NC(=O)c2ccc(NC(=O)c3ccccc3C)cc2)o1 [A3.136] |
| 23.4 | Cc1cc(C)cc(OCC(=O)N/N=C/c2ccco2)c1 [A3.140] |
| 23.4 | COc1ccc(CCCC(=O)N/N=C/c2ccco2)cc1 [A3.141] |

| IC50 [µM] | SMILES |
| --- | --- |
| 23.4 | Cc1ccc(/C=N/NC(=O)c2ccc(O)cc2)o1 [A3.142] |
| 23.6 | O=C(N/N=C/c1cc(Br)c(O)c(Br)c1O)/C(=C\c1ccc2c(c1)OCO2)NC(=O)c1ccccc1 [A3.143] |
| 23.7 | O=C(O)c1ccc2c(c1)C(=O)/C(=C\c1ccco1)C2=O [A3.144] |
| 24.5 | O=C(N/N=C\c1ccco1)c1ccc(Br)cc1 [A3.148] |
| 24.9 | Cc1ccc(C)n1-c1cccc(C(=O)N/N=C/c2cc(Br)c(O)c(Br)c2)c1 [A3.150] |
| 25.1 | COc1cc(/C=N/NC(=O)/C(=C/c2cccs2)NC(=O)c2ccccc2)cc([N+](=O)[O-])c1O [A3.152] |
| 25.1 | CCc1ccc(OCC(=O)N/N=C\c2ccco2)c([N+](=O)[O-])c1 [A3.153] |
| 25.8 | CCOc1ccc(Br)cc1C(=O)N/N=C/c1ccco1 [A3.155] |
| 25.9 | O=C(N/N=C/c1ccco1)c1cccc(NC(=O)c2ccc(F)cc2)c1 [A3.156] |
| 26.3 | O=C(CCCOc1ccc(Cl)cc1Cl)N/N=C/c1ccco1 [A3.158] |
| 26.4 | Cc1ccc(/C=N/NC(=O)c2cc(O)cc(O)c2)o1 [A3.160] |
| 26.6 | COc1ccc(C2(CNC(=O)/C=C/c3ccco3)CCCC2)cc1OC [A3.162] |
| 26.7 | Cc1ccc(/C=N/NC(=O)c2nnn(-c3nonc3N)c2CN2CCOCC2)o1 [A3.163] |
| 26.7 | CCCCCC(=O)N/N=C/c1ccco1 [A3.164] |
| 27.3 | CCCOc1ccc(/C=C(\NC(=O)c2ccccc2)C(=O)N/N=C/c2ccco2)cc1 [A3.165] |
| 27.4 | Cc1nn(-c2ccccc2)c(C)c1-c1cc(C(=O)N/N=C/c2ccco2)[nH]n1 [A3.167] |
| 27.5 | CC(/C=N/NC(=O)c1ccco1)=C\c1ccco1 [A3.168] |
| 28.1 | COC(=O)c1ccccc1-c1ccc(/C=C2\C(=O)N(C)C(=O)C(C#N)=C2C)o1 [A3.172] |
| 28.5 | CC(/C=C/c1ccco1)=N\NC(=O)CNc1ccc2ccccc2c1 [A3.173] |
| 28.7 | COc1ccccc1-n1c(CCC(=O)O)ccc1-c1cccs1 [A3.177] |
| 29.4 | COc1ccc(/C(C)=N/NC(=O)CNC(=O)/C=C\c2ccco2)cc1 [A3.181] |
| 29.5 | O=C(N/N=C/c1ccco1)c1cccc(NC(=O)c2ccccc2)c1 [A3.182] |
| 29.7 | CC(=O)Nc1ccc(C(=O)N/N=C/c2ccc(C)o2)cc1 [A3.183] |
| 30 | Cc1ccc(/C=N/NC(=O)c2cccc(I)c2)o1 [A3.184] |

The remaining lines, values behind:

| SMILES | IC50 [µM] |
| --- | --- |
| Cc1cc(=O)[nH]c(N/N=C/c2ccco2)n1 [A3.088] | 18.2 |
| NNC(=O)Cn1c2ccccc2n2cc(-c3ccccc3)cc12 [A3.091] | 18.7 |
| O=C(N/C(=C\c1ccco1)C(=O)N1CCCC(CO)C1)c1ccccc1 (centres unmarked) [A3.094] | 19 |
| CN1C/C(=C/c2ccco2)C(=O)/C(=C/c2ccco2)C1 [A3.098] | 19.2 |
| CC1CCCCN1S(=O)(=O)c1ccc(NC(=O)/C=C/c2ccco2)cc1 (centres unmarked) [A3.103] | 19.9 |
| CN(C)c1ccc(C2C3C(=O)N(c4ccccc4)C(=O)C3ON2c2ccc(Cl)cc2)cc1 (centres unmarked) [A3.104] | 20 |
| CCCOc1[nH]c(/N=C/c2ccccc2)c(C#N)c1C#N [A3.105] | 20 |
| Cc1cc(C)n(-c2nnc(N)nn2)n1 [A3.107] | 20.3 |
| CCCN1C(=O)C(C#N)=C(C)/C(=C\c2ccc(-c3cccc(Cl)c3C)o2)C1=O [A3.112] | 20.8 |
| COc1ccc(C[C@@H](N)C(=O)N[C@@H]2[C@H](O)[C@H](n3cnc4c(N(C)C)ncnc43)O[C@@H]2CO)cc1 [A3.114] | 20.9 |
| O=C(N/C(=C\c1ccco1)C(=O)N1CCC(O)CC1)c1ccccc1 [A3.115] | 21.1 |
| O=C(O)c1ccc(-n2c(/C=C/c3ccco3)nc3ccccc3c2=O)cc1 [A3.116] | 21.2 |
| O=C1C(Cc2ccc(O)cc2)NC(=S)N1C1CCCCC1 (centres unmarked) [A3.118] | 21.3 |
| CC1=C(C#N)C(O)=NC(=O)/C1=C/c1ccc(-c2ccc(Cl)c(C(=O)OC(C)C)c2)o1 [A3.120] | 21.4 |
| Cc1cccc(C)c1Nc1c(-c2ccccc2NC(=O)Nc2cccc(Cl)c2)nc2c(C(=O)NCC(C)C)cccn12 [A3.121] | 21.6 |
| O=C(Nc1ccc(N=Nc2ccccc2)cc1)c1ccc(S(=O)(=O)N2CCCC2)cc1 [A3.122] | 21.6 |
| CCOc1ccc(S(=O)(=O)N2CCCCC2)cc1-c1nc2c(C(C)(C)C)nn(C)c2c(=O)[nH]1 [A3.124] | 21.8 |
| CCOC(=O)c1c(C)oc2c1c1c(c3ccccc32)OCN(C2CCS(=O)(=O)C2)C1 (centres unmarked) [A3.129] | 22.3 |
| CC(C)CC(NC(=O)C(CCC(N)=O)NC(=O)CNC(=O)C(NC(=O)OCC1c2ccccc2-c2ccccc21)C(C)C)C(=O)O (centres unmarked) [A3.132] (Fmoc-VGQL-OH; configuration not given here) | 22.5 |
| Cn1nc(-c2cccs2)nc2c(=O)n(C)c(=O)nc1-2 [A3.133] | 25 |
| CN(C)CCCN1CCN(c2nc(N(C)CC(=O)O)c3ncn(Cc4ccc(C(F)(F)F)cc4)c3n2)CC1 [A3.137] | 23 |
| CC1=NNC(=O)C1CCC(=O)N/N=C\C=C\c1ccco1 (centres unmarked) [A3.138] | 23 |
| CCOC(=O)C1=C2SCC(=O)N2C(N)=C(C#N)C1 [A3.139] | 23.1 |

| SMILES | IC50 [µM] |
| --- | --- |
| CCCOC(=O)c1cc(-c2ccc(/C=C3\C(=O)N(CCCO)C(=O)C(C#N)=C3C)o2)ccc1Cl [A3.146] | 23.8 |
| O=C1/C(=C/C=C/c2ccco2)CCC/C1=C\C=C\c1ccco1 [A3.147] | 24.4 |
| Cc1ccc(/C=C/C(=O)Nc2ccc(S(=O)(=O)N3CCCC3)cc2)o1 [A3.149] | 24.8 |
| O=C1C(Cc2ccccc2)NC(=S)N1c1ccccc1 (centres unmarked) [A3.151] | 26.1 |
| O=C(N/C(=C\c1ccco1)C(=O)N1CCOCC1)c1ccccc1Cl [A3.154] | 25.5 |
| Cn1c(=O)[nH]c2nnc(-c3cccs3)nc2c1=O [A3.157] | 26.1 |
| Cc1ccc(/C=N/NC2=NC(=O)CS2)o1 [A3.159] | 22.6 |
| O=C1CNC(c2cccc([N+](=O)[O-])c2)N1O (centres unmarked) [A3.161] | 26.4 |
| O=C(/C=C/c1ccco1)c1ccccc1 [A3.166] | 27.3 |
| CC1SC(N/N=C/c2ccco2)=NC1=O (centres unmarked) [A3.169] | 27.7 |
| Cc1ccc(Cn2c(SCCC(=O)O)nc3c2c(=O)n(C)c(=O)n3C)cc1 [A3.170] | 28 |
| O=C(Cc1cccs1)N/N=C/C=C\c1ccco1 [A3.171] | 28 |
| C/C(=N\N=C1\SC(CC(=O)O)C(=O)N1c1ccccc1)c1ccco1 (centres unmarked) [A3.174] | 28.6 |
| CC1=C(C#N)C(=O)N(CC(C)O)C(=O)/C1=C/c1ccc(-c2cccc(Cl)c2C)o1 (centres unmarked) [A3.175] | 28.6 |
| C(=C\c1ccco1)/c1nc2ccccc2[nH]1 [A3.176] | 28.7 |
| Cc1ccc(C(=O)N/C(=C\c2ccco2)C(=O)N2CCOCC2)cc1C [A3.178] | 28.8 |
| O=C(C1c2ccccc2Oc2ccccc21)n1cc(Cl)cn1 [A3.179] | 29.1 |
| C=CCN1C(=O)C(C#N)=C(C)/C(=C\c2ccc(-c3cc(C)c(C)cc3[N+](=O)[O-])o2)C1=O [A3.180] | 29.3 |
| O=C(N/N=C\c1ccco1)c1cnccn1 [A3.185] | 30.1 |
| O=C(N/N=C/C=C\c1ccco1)c1ccoc1 [A3.186] | 30.1 |
| CC1=C(C#N)C(=O)N=C(O)/C1=C\c1ccc(-c2ccc(Cl)cc2Cl)o1 [A3.187] | 30.3 |
| NC(=O)C1CCN(C(=O)/C(=C/c2ccco2)NC(=O)c2ccccc2)CC1 [A3.188] | 30.5 |
| Cc1cccc(C)c1NC1C(c2ccccc2NC(=O)Nc2ccc(OC(F)(F)F)cc2)N=C2C(C(=O)NCC(C)C)=CC=CN21 (centres unmarked) [A3.190] | 31.1 |

From patent publication US20070037752A1, “Novel alanyl-amino peptidase inhibitors for functionally influencing different cells and treating immunological, inflammatory, neuronal, and other diseases” (priority 2003, published 2007)
